Test [1] has as its system NCI-H292 lung cancer cells. Description: FDA drug screening, complete media vs cholesterol-free media without statin (TABLE 1). The test is classed as cell-based, human.
Test [2] relates to NCI-H292 lung cancer cells. Description: FDA drug screening, complete media vs cholesterol-free media with simvastatin (TABLE 2). Particulars: for Cholesterol-free media + simvastatin (0.04 μM) / Complete Media: NCI-H292 cells. Format: cell-based, human.
[3] abbreviates: NCI-H292 cells, cholesterol-free media without statin, FDA drug library screen.
The mark [4] stands for this setting: NCI-H292 cells, complete media, FDA drug library screen.
Setting [5] is: complete vs cholesterol-free media, >0 enhanced anti-cancer activity, about 0 neutral, <0 antagonist.
Setting [6] is: complete media minus cholesterol-free media + simvastatin, >0 enhanced anti-cancer activity, about 0 neutral, <0 antagonist.
[7] abbreviates: FDA library drug in cholesterol-free media with simvastatin 0.04 μM.
Where [8] appears, read: FDA library drug in complete media.
Where [9] appears, read: complete media vs cholesterol-free media + simvastatin (0.04 μM), […].
The mark [10] stands for this setting: Complete minus Cholesterol-free, greater than 0 enhanced anti-cancer activity, about 0 neutral, below 0 antagonist.
Where [11] appears, read: NCI-H292 cells, FDA drug library screen, cholesterol-free media without statin.
The mark [12] stands for this setting: NCI-H292 cells, FDA drug library screen, complete media.
Setting [13] is: complete media vs cholesterol-free media + simvastatin (0.04 μM), >0 enhanced anti-cancer activity, about 0 neutral, <0 antagonist.
Setting [14] is: drug in cholesterol-free media with simvastatin 0.04 μM.
Setting [15] is: cholesterol-free media with simvastatin 0.04 μM, FDA drug library screen (TABLE 2).
Setting [16] is: complete media, FDA drug library screen (TABLE 2).
Setting [17] is: complete media minus cholesterol-free media + simvastatin (0.04 μM), >0 enhanced anti-cancer activity, about 0 neutral, <0 antagonist.

In turn, `CCN1CCCC1CNC(=O)c1cc(S(=O)(=O)CC)c(N)cc1OC` (stereo not drawn) [Amisulpride] displayed a Cholesterol-free in test [1] (setting [3]) of 1.175. Further, the Complete in test [1] (setting [4]) amounted to 1.349. Further, the Difference stood at 0.17 in test [1] (setting [5]) and 0.06 in test [2] (setting [6]). Moreover, the “Cholesterol-free media + simvastatin (0.04 μM)” value in test [2] (cholesterol-free media with simvastatin 0.04 μM, cell growth value in FDA drug screen) was found to be 0.8703. The “Complete Media” value in test [2] (complete media, cell growth value in FDA drug screen) amounted to 0.9333.

Turning to `C=C1CC[C@@H]2[C@](C)(CO)[C@H](O)CC[C@@]2(C)[C@@H]1/C=C/C1=CCOC1=O` [Dehydroandrographolide], the Difference in test [1] (Complete minus Cholesterol-free, […]) is −0.24; in test [2] (setting [9]), −0.36. In test [1] (NCI-H292 cells, cholesterol-free media without statin), this compound registered a Cholesterol-free of 0.9695. This compound showed a Complete in test [1] (NCI-H292 cells, complete media) of 0.7339. Besides, the “Cholesterol-free media + simvastatin (0.04 μM)” value in test [2] (setting [7]) is 1.79. Also, the “Complete Media” value in test [2] (setting [8]) amounted to 1.432.

With `CO[C@H]1O[C@H](COS(=O)(=O)O)[C@@H](O[C@@H]2O[C@@H](C(=O)O)[C@@H](O[C@H]3O[C@H](COS(=O)(=O)O)[C@@H](O[C@@H]4O[C@H](C(=O)O)[C@@H](O[C@H]5O[C@H](COS(=O)(=O)O)[C@@H](O)[C@H](O)[C@H]5NS(=O)(=O)O)[C@H](O)[C@H]4O)[C@H](OS(=O)(=O)O)[C@H]3NS(=O)(=O)O)[C@H](O)[C@H]2OS(=O)(=O)O)[C@H](O)[C@H]1NS(=O)(=O)O` [Fondaparinux (sodium)], the values for the Difference in test [1] (setting [10]) and in test [2] (setting [13]) were −0.10 and −0.29, respectively. This compound showed a Cholesterol-free in test [1] (setting [11]) of 1.098. In test [1] (setting [12]), this compound returned a Complete of 1. Moreover, the “Cholesterol-free media + simvastatin (0.04 μM)” value in test [2] (setting [7]) stood at 1.182. In test [2] (setting [8]), the “Complete Media” value stood at 0.8937.

In test [1] (setting [3]), `CC(=O)OCC[N+](C)(C)C.[Cl-]` [Acetylcholine (chloride)] returned a Cholesterol-free of 1.32. This compound also came in with a Complete in test [1] (setting [4]) of 1.724. Moreover, the Difference in test [1] (setting [5]) was 0.40; in test [2] (setting [13]), −0.18. Further, in test [2] (setting [14]), the “Cholesterol-free media + simvastatin (0.04 μM)” value was 0.9864. Also, the “Complete Media” value in test [2] (drug in complete media) was determined as 0.8029.

`CCC1=C[C@@H]2[C@H](C1)C[C@]2(CN)CC(=O)O` [Mirogabalin] showed a Cholesterol-free in test [1] (setting [3]) of 0.5074. Moreover, the Complete in test [1] (setting [4]) came out at 1.015. Moreover, the Difference was 0.51 in test [1] (complete vs cholesterol-free media, […]) and −0.23 in test [2] (setting [9]). Moreover, in test [2] (setting [14]), the “Cholesterol-free media + simvastatin (0.04 μM)” value was found to be 1.082. The “Complete Media” value in test [2] (drug in complete media) was found to be 0.8543.

On to `C[C@@H]1C[C@H]2[C@@H]3CCC4=CC(=O)C=C[C@]4(C)[C@@]3(F)[C@@H](O)C[C@]2(C)[C@H]1C(=O)CO` [Desoximetasone], for which the Difference is −0.06 in test [1] (Complete minus Cholesterol-free, >0 enhanced anti-cancer activity, about 0 neutral, <0 antagonist) and 0.00 in test [2] (setting [17]). In addition, the Cholesterol-free in test [1] (setting [3]) is recorded as 0.8359. Moreover, in test [1] (setting [4]), the Complete came out at 0.7716. Further, the “Cholesterol-free media + simvastatin (0.04 μM)” value in test [2] (setting [15]) is 0.8194. The “Complete Media” value in test [2] (setting [16]) is on record as 0.8184.

Turning to Gabexate (mesylate), the Difference in test [1] (setting [10]) is recorded as −0.15; in test [2] (setting [13]) it was −0.25. The compound further had a Cholesterol-free in test [1] (setting [11]) of 1.126. Moreover, the Complete in test [1] (setting [12]) is recorded as 0.973. Besides, in test [2] (setting [14]), the “Cholesterol-free media + simvastatin (0.04 μM)” value was 1.435. Moreover, the “Complete Media” value in test [2] (drug in complete media) came out at 1.185.

For the compound `NCc1ccccc1CC(=O)N[C@@H]1C(=O)N2C(C(=O)O)=C(CSc3nnnn3CC(=O)O)CS[C@H]12` [Ceforanide], the Difference is recorded as −0.76 in test [1] (Complete minus Cholesterol-free, greater than 0 enhanced anti-cancer activity, about 0 neutral, below 0 antagonists) and 0.30 in test [2] (setting [6]). The compound also gave a Cholesterol-free in test [1] (NCI-H292 cells in cholesterol-free media without statin) of 1.736. This compound had a Complete in test [1] (NCI-H292 cells in complete media) of 0.9794. Also, in test [2] (FDA drug library screen, cholesterol-free media with simvastatin 0.04 μM), the “Cholesterol-free media + simvastatin (0.04 μM)” value was found to be 1.034. Besides, in test [2] (FDA drug library screen, complete media), the “Complete Media” value amounted to 1.331.

In the case of `NCCC(O)(P(=O)(O)O)P(=O)(O)O` [Pamidronic acid], the Difference in test [1] (setting [10]) is −0.18; in test [2] (setting [17]), −0.04. The compound further gave a Cholesterol-free in test [1] (setting [11]) of 0.8132. In test [1] (setting [12]), this compound showed a Complete of 0.6309. For the same compound, the “Cholesterol-free media + simvastatin (0.04 μM)” value in test [2] (setting [15]) came out at 1.09. In addition, the “Complete Media” value in test [2] (setting [16]) was found to be 1.049.

Values taken from patent publication US20250144067A1, “PERSONALIZED STARVATION THERAPY FOR CANCER” (Faeth Therapeutics, Inc., priority 2021, published 2025).
